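GI50 is the concentration that inhibits growth by half. TGI: concentration producing complete growth inhibition.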
How the values were obtained:
Assay in all cases: NCI anticancer screen, dose series, 384-well format
[1] = test system: EKVX NSCLC
[2] = test system: CCRF-CEM leukemia
[3] = test system: HOP-62 NSCLC
[4] = test system: NCI/ADR-RES ovarian
[5] = test system: NCI-H460 NSCLC
[6] = test system: T-47D breast
[7] = test system: MDA-MB-231 breast
[8] = test system: K-562 leukemia
[9] = test system: HS 578T breast
[10] = test system: NCI-H322M lung
[11] = test system: SNB-75 CNS
[12] = test system: RPMI-8226 leukemia
[13] = test system: KM12 colon
[14] = test system: NCI-H23 lung
[15] = test system: SNB-19 CNS
[16] = test system: SF-539 CNS
[17] = test system: OVCAR-3 ovarian
[18] = test system: UO-31 renal
[19] = test system: UACC-257 melanoma
[20] = test system: TK-10 renal
[21] = test system: HT29 colon
[22] = test system: OVCAR-5 ovarian
[23] = test system: RXF 393 renal
[24] = test system: OVCAR-8 ovarian
[25] = test system: NCI-H522 lung
[26] = test system: HOP-92 NSCLC
[27] = test system: LOX IMVI melanoma
[28] = test system: UACC-62 melanoma
[29] = test system: SK-OV-3 ovarian
[30] = test system: MDA-MB-435 melanoma
[31] = test system: U251 glioblastoma
[32] = test system: SF-295 CNS
[33] = test system: SN12C renal
[34] = test system: HL-60(TB) leukemia
[35] = test system: COLO 205 colon
[36] = test system: A498 renal
[37] = test system: MOLT-4 leukemia
[38] = test system: BT-549 breast
[39] = test system: SW-620 colon
[40] = test system: SK-MEL-5 melanoma
[41] = test system: OVCAR-4 ovarian
[42] = test system: MCF7 breast
[43] = test system: MDA-MB-468 breast
[44] = test system: A549 NSCLC
[45] = test system: SK-MEL-28 melanoma
[46] = test system: M14 melanoma
[47] = test system: HCC-2998 colon
[48] = test system: SF-268 CNS
[49] = test system: SR leukemia
[50] = test system: CAKI-1 renal
[51] = test system: 786-0 renal
[52] = test system: NCI-H226 lung
[53] = test system: IGROV1 ovarian
[54] = test system: PC-3 prostate
[55] = test system: MALME-3M melanoma
[56] = test system: ACHN renal
[57] = test system: HCT-15 colon
[58] = test system: DU-145 prostate

SMILES: COc1cc(CCc2cc(NC(=O)c3ccc(N4C[C@@H](C)N[C@@H](C)C4)cc3)n[nH]2)cc(OC)c1
- GI50 [1]: 10.4 µM
- TGI [1]: 22.2 µM
- GI50 [2]: 2330 nM
- TGI [2]: 4.13 µM
- GI50 [3]: 5.65 µM
- TGI [3]: 17.3 µM
- GI50 [4]: 17.5 µM
- TGI [4]: 31.5 µM
- GI50 [5]: 3.39 µM
- TGI [5]: 10.9 µM
- GI50 [6]: 11.1 µM
- TGI [6]: 23.2 µM
- GI50 [7]: 5.81 µM
- TGI [7]: 18.3 µM
- GI50 [8]: 2500 nM
- TGI [8]: 4.83 µM
- GI50 [9]: 2190 nM
- TGI [9]: 4.58 µM
- GI50 [10]: 5.5 µM
- TGI [10]: 17.4 µM
- GI50 [11]: 4.55 µM
- TGI [11]: 17.1 µM
- GI50 [12]: 2260 nM
- TGI [12]: 4.41 µM
- GI50 [13]: 51.6 nM
- TGI [13]: 1460 nM
- GI50 [14]: 2420 nM
- TGI [14]: 6.77 µM
- GI50 [15]: 15.3 µM
- TGI [15]: 28.8 µM
- GI50 [16]: 1690 nM
- TGI [16]: 4.18 µM
- GI50 [17]: 11.9 µM
- TGI [17]: 24.3 µM
- GI50 [18]: 11.1 µM
- TGI [18]: 23.9 µM
- GI50 [19]: 1530 nM
- TGI [19]: 2900 nM
- GI50 [20]: 11.8 µM
- TGI [20]: 24.2 µM
- GI50 [21]: 1850 nM
- TGI [21]: 3.72 µM
- GI50 [22]: 3.22 µM
- TGI [22]: 9.57 µM
- GI50 [23]: 2130 nM
- TGI [23]: 5.28 µM
- GI50 [24]: 9.65 µM
- TGI [24]: 21.5 µM
- GI50 [25]: 5.63 µM
- TGI [25]: 17.9 µM
- GI50 [26]: 3.61 µM
- TGI [26]: 15 µM
- GI50 [27]: 1900 nM
- TGI [27]: 3.58 µM
- GI50 [28]: 3.07 µM
- TGI [28]: 10.7 µM
- GI50 [29]: 2990 nM
- TGI [29]: 11 µM
- GI50 [30]: 3.26 µM
- TGI [30]: 10.8 µM
- GI50 [31]: 6.52 µM
- TGI [31]: 19 µM
- GI50 [32]: 4.91 µM
- TGI [32]: 15.5 µM
- GI50 [33]: 2540 nM
- TGI [33]: 10.1 µM
- GI50 [34]: 1830 nM
- TGI [34]: 3.28 µM
- GI50 [35]: 2310 nM
- TGI [35]: 5.36 µM
- GI50 [36]: 3.66 µM
- TGI [36]: 13.7 µM
- GI50 [37]: 1860 nM
- TGI [37]: 3.36 µM
- GI50 [38]: 1950 nM
- TGI [38]: 8.13 µM
- GI50 [39]: 4.21 µM
- TGI [39]: 15.3 µM
- GI50 [40]: 1590 nM
- TGI [40]: 2950 nM
- GI50 [41]: 6.69 µM
- TGI [41]: 19.7 µM
- GI50 [42]: 3.06 µM
- TGI [42]: 10.9 µM
- GI50 [43]: 3.46 µM
- TGI [43]: 6.61 µM
- GI50 [44]: 4.71 µM
- TGI [44]: 15.7 µM
- GI50 [45]: 2330 nM
- TGI [45]: 5.37 µM
- GI50 [46]: 1710 nM
- TGI [46]: 3.35 µM
- GI50 [47]: 3.82 µM
- TGI [47]: 12.8 µM
- GI50 [48]: 5.42 µM
- TGI [48]: 18.2 µM
- GI50 [49]: 1800 nM
- TGI [49]: 3.21 µM
- GI50 [50]: 3.65 µM
- TGI [50]: 14 µM
- GI50 [51]: 3.07 µM
- TGI [51]: 9.35 µM
- GI50 [52]: 1490 nM
- TGI [52]: 10.9 µM
- GI50 [53]: 3.8 µM
- TGI [53]: 14 µM
- GI50 [54]: 4.91 µM
- TGI [54]: 16.1 µM
- GI50 [55]: 2030 nM
- TGI [55]: 4.37 µM
- GI50 [56]: 4.46 µM
- TGI [56]: 15.9 µM
- GI50 [57]: 3.39 µM
- TGI [57]: 11.2 µM
- GI50 [58]: 5.91 µM
- TGI [58]: 18 µM
